Legend:
[1] = target: human immuno proteasome (LMP7) (Homo sapiens (Human), UniProt P28062); assay: Determination of LMP7 activity (fluorescence intensity assay, Suc-LLVY-AMC); assay type: biochemical
Procedure, shortened: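 Fluorogenic Suc-LLVY-AMC cleavage (40 μM substrate, 60 min, 37° C., ex 350/em 450 nm) measured after 0.25 nM human immunoproteasome was exposed to compound at 30 μM–15 pM. Preincubation was 20 min by default or 120 min (long) at 25° C., in Tris pH 7.4 with 0.03% SDS, 1 mM EDTA and 1% DMSO.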

[2] = target: human constitutive proteasome (Beta5) (Homo sapiens (Human), UniProt P28074); assay: Determination of Beta5 activity (fluorescence intensity assay, Suc-LLVY-AMC); assay type: biochemical
Procedure, shortened: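 Purified human constitutive proteasome (1.25 nM) preincubated with compounds (30 μM–15 pM) for 20 min (default) or 120 min at 25 °C in 50 mM Tris pH 7.4, 0.03% SDS, 1 mM EDTA, 1% DMSO. Suc-LLVY-AMC substrate at 40 μM, 60 min at 37 °C. Fluorescence read at ex 350/em 450 nm.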

[3] = LMP7 versus Beta5, incubation for 20 minutes
[4] = LMP7 versus Beta5, long incubation (120 min)

Selectivity LMP7 vs Beta5 [1, 3] | IC50 ([1]; incubation for 20 minutes) [nM] | IC50 ([2]; incubation for 20 minutes) [nM] | Selectivity LMP7 vs Beta5 [1, 4] | IC50 ([1]; long incubation (120 min)) [nM] | IC50 ([2]; long incubation (120 min)) [nM] | Structure (SMILES)
+++++ (Selectivity ≥ 150) | < 50 | 500 to 5000 |  |  |  | C=CS(=O)(=O)N(C)CC(=O)N[C@@H](Cc1ccc(C)c(C)c1)B(O)O [Compound No. 10, [(1R)-2-(3,4-dimethylphenyl)-1-[[2-[methyl(vinylsulfonyl)amino]-acetyl]amino]ethyl]boronic Acid]
 |  |  | +++++ (Selectivity ≥ 150) | < 50 | 500 to 5000 | C=CC(=O)N(C)CC(=O)N[C@@H](Cc1ccc2ccccc2c1)B(O)O [Compound No. 82, [(1R)-1-[[2-[methyl(prop-2-enoyl)amino]acetyl]amino]-2-(2-naphthyl)ethyl]boronic Acid]
 |  |  | +++++ (Selectivity ≥ 150) | < 50 | > 5000 | C=CC(=O)N(C)CC(=O)N[C@@H](Cc1ccc(Cl)cc1Cl)B(O)O [Compound No. 85, [(1R)-2-(2,4-dichlorophenyl)-1-[[2-[methyl(prop-2-enoyl)amino]acetyl]amino]ethyl]boronic Acid]
 |  |  | +++++ (Selectivity ≥ 150) | < 50 | 500 to 5000 | C=CC(=O)N(CC(=O)N[C@@H](Cc1ccc(Cl)cc1)B(O)O)c1ccccc1F [Compound No. 55, [(1R)-2-(4-chlorophenyl)-1-[[2-(2-fluoro-N-prop-2-enoyl-anilino)acetyl]amino]ethyl]boronic Acid]
 |  |  | +++++ (Selectivity ≥ 150) | < 50 | > 5000 | C=CC(=O)N(CC(=O)N[C@@H](CCc1ccccc1)B(O)O)c1ccccc1F [Compound No. 101, [(1R)-1-[[2-(2-fluoro-N-prop-2-enoyl-anilino)acetyl]amino]-3-phenyl-propyl]boronic acid]
 |  |  | +++++ (Selectivity ≥ 150) | 50 to 500 | > 5000 | C=CC(=O)N(CC)CC(=O)N[C@@H](Cc1ccc(C)c(C)c1C)B(O)O [Compound No. 72, [(1R)-1-[[2-[ethyl(prop-2-enoyl)amino]acetyl]amino]-2-(2,3,4-trimethylphenyl)ethyl]boronic Acid]
++ (50 ≤ Selectivity < 70) | 500 to 5000 | > 5000 |  |  |  | C=CC(=O)N1CCC[C@H]1C(=O)N[C@@H](Cc1ccc(C)cc1C)B(O)O [Compound No. 58, [(1R)-2-(2,4-dimethylphenyl)-1-[[(2S)-1-prop-2-enoylpyrrolidine-2-carbonyl]amino]ethyl]boronic Acid]
+++ (70 ≤ 100) | 50 to 500 | 500 to 5000 |  |  |  | C/C=C\C(=O)N(CC)CC(=O)N[C@@H](Cc1ccc(C)cc1C)B(O)O [Compound No. 18, [(1R)-1-[[2-[[(Z)-but-2-enoyl]-ethyl-amino]acetyl]amino]-2-(2,4-dimethylphenyl)ethyl]boronic Acid]
 |  |  | +++++ (Selectivity ≥ 150) | 50 to 500 | > 5000 | C=CC(=O)N(CC(=O)N[C@@H](Cc1ccc(C)c(C)c1)B(O)O)CC(F)F [Compound No. 83, [(1R)-1-[[2-[2,2-difluoroethyl(prop-2-enoyl)amino]acetyl]-amino]-2-(3,4-dimethylphenyl)ethyl]boronic Acid]
 |  |  | +++++ (Selectivity ≥ 150) | < 50 | > 5000 | C=CC(=O)N(C)CC(=O)N[C@@H](Cc1ccc(Cl)c(Cl)c1)B(O)O [Compound No. 66, [(1R)-2-(3,4-dichlorophenyl)-1-[[2-[methyl(prop-2-enoyl)amino]acetyl]amino]ethyl]boronic Acid]
+ (Selectivity < 50) | 50 to 500 | > 5000 |  |  |  | C=CC(=O)N(CC(=O)N[C@@H](Cc1ccccc1)B(O)O)C(C)C [Compound No. 35, [(1R)-1-[[2-[isopropyl(prop-2-enoyl)amino]acetyl]amino]-2-phenyl-ethyl]boronic Acid]
 |  |  | +++++ (Selectivity ≥ 150) | 50 to 500 | > 5000 | C=CC(=O)N(CC(=O)N[C@@H](Cc1ccc(C)cc1C)B(O)O)CC(F)(F)F [Compound No. 57, [(1R)-2-(2,4-dimethylphenyl)-1-[[2-[prop-2-enoyl(2,2,2-trifluoroethyl)amino]acetyl]amino]ethyl]boronic Acid]
+++ (70 ≤ 100) | < 50 | 500 to 5000 |  |  |  | C=CC(=O)N(CC(=O)N[C@@H](Cc1ccc(C)cc1C)B(O)O)c1ccc(OC(F)(F)F)cc1 [Compound No. 9, [(1R)-2-(2,4-dimethylphenyl)-1-[[2-[N-prop-2-enoyl-4-(trifluoromethoxy)anilino]acetyl]amino]ethyl]boronic Acid]
 |  |  | ++++ (100 ≤ Selectivity < 150) | 50 to 500 | > 5000 | C=CC(=O)N1CCCC[C@@H]1C(=O)N[C@@H](Cc1ccc(C)cc1C)B(O)O [Compound No. 38, [(1R)-2-(2,4-dimethylphenyl)-1-[[(2R)-1-prop-2-enoylpiperidine-2-carbonyl]amino]ethyl]boronic Acid]
 |  |  | ++ (50 ≤ Selectivity < 70) | 500 to 5000 | > 5000 | C=CC(=O)N1CCC[C@@H]1C(=O)N[C@@H](Cc1ccc(Cl)cc1Cl)B(O)O [Compound No. 54, [(1R)-2-(2,4-dichlorophenyl)-1-[[(2R)-1-prop-2-enoylpyrrolidine-2-carbonyl]amino]ethyl]boronic Acid]
 |  |  | +++++ (Selectivity ≥ 150) | 50 to 500 | > 5000 | C=CC(=O)N(CC)CC(=O)N[C@@H](Cc1cccc2ccccc12)B(O)O [Compound No. 79, [(1R)-1-[[2-[ethyl(prop-2-enoyl)amino]acetyl]amino]-2-(1-naphthyl)ethyl]boronic Acid]
++++ (100 ≤ Selectivity < 150) | < 50 | 500 to 5000 |  |  |  | C=CC(=O)N(CC(=O)N[C@@H](Cc1ccc(C)cc1C)B(O)O)c1ccc(F)cc1 [Compound No. 2, [(1R)-2-(2,4-dimethylphenyl)-1-[[2-(4-fluoro-N-prop-2-enoyl-anilino)acetyl]amino]ethyl]boronic Acid]
+++++ (Selectivity ≥ 150) | 50 to 500 | > 5000 |  |  |  | C=CC(=O)N(CC(=O)N[C@@H](C[C@H]1COc2c(C)cccc21)B(O)O)c1ccccc1F [Compound No. 91, [(1R)-1-[[2-(2-fluoro-N-prop-2-enoyl-anilino)acetyl]amino]-2-[(3R)-7-methyl-2,3-dihydrobenzofuran-3-yl]ethyl]boronic Acid]
 |  |  | +++++ (Selectivity ≥ 150) | 50 to 500 | > 5000 | C=CC(=O)N(CC(=O)N[C@@H](Cc1ccsc1)B(O)O)c1ccccc1Cl [Compound No. 89, [(1R)-1-[[2-(2-chloro-N-prop-2-enoyl-anilino)acetyl]amino]-2-(3-thienyl)ethyl]boronic Acid]
 |  |  | +++++ (Selectivity ≥ 150) |  | 500 to 5000 | C=CC(=O)N(CC(=O)N[C@@H](Cc1ccc(Cl)c(Cl)c1)B(O)O)C1CC1 [Compound No. 69, [(1R)-1-[[2-[cyclopropyl(prop-2-enoyl)amino]acetyl]amino]-2-(3,4-dichlorophenyl)ethyl]boronic Acid]
 |  |  | ++ (50 ≤ Selectivity < 70) | 500 to 5000 | > 5000 | C=CC(=O)N1CCCC[C@H]1C(=O)N[C@@H](Cc1ccc(C)cc1C)B(O)O [Compound No. 39, [(1R)-2-(2,4-dimethylphenyl)-1-[[(2S)-1-prop-2-enoylpiperidine-2-carbonyl]amino]ethyl]boronic Acid]
 |  |  | +++++ (Selectivity ≥ 150) | < 50 | > 5000 | C=CC(=O)N(CC(=O)N[C@@H](Cc1ccsc1)B(O)O)c1ccc(Cl)c(Cl)c1 [Compound No. 97, [(1R)-1-[[2-(3,4-dichloro-N-prop-2-enoyl-anilino)acetyl]amino]-2-(3-thienyl)ethyl]boronic Acid]
 |  |  | +++++ (Selectivity ≥ 150) | < 50 | > 5000 | C=CC(=O)N(CC(=O)N[C@@H](Cc1ccc(C)cc1C)B(O)O)c1c(F)cccc1F [Compound No. 43, [(1R)-1-[[2-(2,6-difluoro-N-prop-2-enoyl-anilino)acetyl]amino]-2-(2,4-dimethylphenyl)ethyl]boronic Acid]
 |  |  | +++++ (Selectivity ≥ 150) | < 50 | > 5000 | CCN(CC(=O)N[C@@H](Cc1ccc(C)cc1C)B(O)O)C(=O)/C=C/CN(C)C [Compound No. 105, [(1R)-1-[[2-[[(E)-4-(dimethylamino)but-2-enoyl]-ethyl-amino]-acetyl]amino]-2-(2,4-dimethylphenyl)ethyl]boronic Acid]
 |  |  | +++++ (Selectivity ≥ 150) | < 50 | > 5000 | C=CC(=O)N(CC)CC(=O)N[C@@H](Cc1ccsc1)B(O)O [Compound No. 77, [(1R)-1-[[2-[ethyl(prop-2-enoyl)amino]acetyl]amino]-2-(3-thienyl)ethyl]boronic Acid]
 |  |  | ++ (50 ≤ Selectivity < 70) | 500 to 5000 | > 5000 | C=CC(=O)N(C)[C@H](C)C(=O)N[C@@H](Cc1ccc(C)cc1C)B(O)O [Compound No. 52, [(1R)-2-(2,4-dimethylphenyl)-1-[[(2R)-2-[methyl(prop-2-enoyl)amino]propanoyl]amino]ethyl]boronic Acid]

— US10669289B2, “Boronic acid derivatives” (MERCK PATENT GMBH, priority 2014, dated 2020)
